This assay concerns the target human TYK2 (JH2domain-pseudokinase) (Homo sapiens (Human), UniProt P29597). Nature of the assay: TYK2 JH2 Domain Binding Assay (KINOMEscan). Conditions: 11-point 3-fold dilution, top concentration 30,000 nM, duplicate. On the procedure:
Binding constants for compounds of the present invention against the JH2 domain were determined by the following protocol for a KINOMEscan® assay (DiscoveRx). A fusion protein of a partial length construct of human TYK2 (JH2domain-pseudokinase) (amino acids G556 to D888 based on reference sequence NP_003322.3) and the DNA binding domain of NFkB was expressed in transiently transfected HEK293 cells. From these HEK 293 cells, extracts were prepared in M-PER extraction buffer (Pierce) in the presence of Protease Inhibitor Cocktail Complete (Roche) and Phosphatase Inhibitor Cocktail Set II (Merck) per manufacturers' instructions. The TYK2(JH2domain-pseudokinase) fusion protein was labeled with a chimeric double-stranded DNA tag containing the NFkB binding site (5′-GGGAATTCCC-3′) fused to an amplicon for qPCR readout, which was added directly to the expression extract (the final concentration of DNA-tag in the binding reaction is 0.1 nM).
Streptavidin-coated magnetic beads (Dynal M280) were treated with a biotinylated small molecule ligand for 30 minutes at room temperature to generate affinity resins for the binding assays. The liganded beads were blocked with excess biotin and washed with blocking buffer (SeaBlock (Pierce), 1% BSA, 0.05% Tween 20, 1 mM DTT) to remove unbound ligand and to reduce nonspecific binding.
The binding reaction was assembled by combining 16 μl of DNA-tagged kinase extract, 3.8 μl liganded affinity beads, and 0.18 μl test compound (PBS/0.05% Tween 20/10 mM DTT/0.1% BSA/2 μg/ml sonicated salmon sperm DNA). Extracts were used directly in binding assays without any enzyme purification steps at a ≥10,000-fold overall stock dilution (final DNA-tagged enzyme concentration <0.1 nM). Extracts were loaded with DNA-tag and diluted into the binding reaction in a two step process. First extracts were diluted 1:100 in 1× binding buffer (PBS/0.05% Tween 20/10 mM DTT/0.1% BSA/2 μg/ml sonicated salmon sperm DNA) containing 10 nM DNA-tag. This dilution was allowed to equilibrate at room temperature for 15 minutes and then subsequently diluted 1:100 in 1× binding buffer. All reactions were performed in polypropylene 384-well plates. Each was a final volume of 0.02 mL. Assays were incubated with shaking for 1 hour at room temperature. Then the beads were pelleted and washed with wash buffer (1×PBS, 0.05% Tween 20) to remove displaced kinase and test compound. The washed based were re-suspended in elution buffer (1×PBS, 0.05% Tween 20, 0.5 μM non-biotinylated affinity ligand) and incubated at room temperature with shaking for 30 minutes. The kinase concentration in the eluates was measured by qPCR. qPCR reactions were assembled by adding 2.5 μL of kinase eluate to 7.5 μL of qPCR master mix containing 0.15 μM amplicon primers and 0.15 μM amplicon probe. The qPCR protocol consisted of a 10 minute hot start at 95° C., followed by 35 cycles of 95° C. for 15 seconds, 60° C. for 1 minute.
Test compounds were prepared as 111× stocks in 100% DMSO. Kd values were determined using an 11-point 3-fold compound dilution series with three DMSO control points. All compounds for Kd measurements are distributed by acoustic transfer (non-contact dispensing) in 100% DMSO. The compounds were then diluted directly into the assays such that the final concentration of DMSO was 0.9%. The Kd values were determined using a compound top concentration of 30,000 nM. Kd measurements were performed in duplicate.
Binding constants (Kds) were calculated with a standard dose-response curve using the Hill equation: […]
The Hill Slope was set to −1. Curves were fitted using a non-linear least square fit with the Levenberg-Marquardt algorithm (Levenberg, K., A method for the solution of certain non-linear problems in least squares, Q. Appl. Math. 2, 164-168 (1944)).
human TYK2 (JH2domain-pseudokinase), sequence (P29597 556-888): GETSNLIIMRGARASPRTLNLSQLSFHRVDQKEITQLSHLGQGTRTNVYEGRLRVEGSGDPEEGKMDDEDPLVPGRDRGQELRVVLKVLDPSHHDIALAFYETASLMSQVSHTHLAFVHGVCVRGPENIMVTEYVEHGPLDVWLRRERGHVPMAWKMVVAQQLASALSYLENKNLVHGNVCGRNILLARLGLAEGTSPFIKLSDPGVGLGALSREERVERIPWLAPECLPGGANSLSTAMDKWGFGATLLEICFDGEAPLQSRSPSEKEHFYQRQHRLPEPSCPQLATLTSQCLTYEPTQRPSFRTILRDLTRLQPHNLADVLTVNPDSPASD
The compound `CNC(=O)c1cnc(NC(=O)C2CC2)c2[nH]c(-c3ccc(OC[C@@H]4CCCO4)cc3F)cc12` [Compound I-88, (S)-7-(cyclopropanecarboxamido)-2-(2-fluoro-4-((tetrahydrofuran-2-yl)methoxy)phenyl)-N-methyl-1H-pyrrolo[2,3-c]pyridine-4-carboxamide] displayed a Kd of under 200 pM.

Compound `CNC(=O)c1cnc(Nc2ccn(C)n2)c2[nH]c(-c3ccccc3)cc12` [Compound I-93, N-methyl-7-((1-methyl-1H-pyrazol-3-yl)amino)-2-phenyl-1H-pyrrolo[2,3-c]pyridine-4-carboxamide] gave a Kd of 200 to 1000 pM.

With `CNC(=O)c1cnc(NC(=O)C2CC2)c2[nH]c(-c3cccn(C4CCCOC4)c3=O)cc12` (stereo in doubt) [Compound I-56, (R)-7-(cyclopropanecarboxamido)-N-methyl-2-(2-oxo-1-(tetrahydro-2H-pyran-3-yl)-1,2-dihydropyridin-3-yl)-1H-pyrrolo[2,3-c]pyridine-4-carboxamide], the Kd was 200 to 1000 pM.

`CNC(=O)c1cnc(NC(=O)C2CC2)c2[nH]c(-c3cccc(N4CCC4)c3C#N)cc12` [Compound I-41, 2-(3-(azetidin-1-yl)-2-cyanophenyl)-7-(cyclopropanecarboxamido)-N-methyl-1H-pyrrolo[2,3-c]pyridine-4-carboxamide] returned an equilibrium dissociation constant (Kd) of 1000 to 10000 pM.

Regarding `CNC(=O)c1cnc(NC(=O)C2CC2)c2[nH]c(-c3ccc(-c4cn(C)nn4)cc3OC)cc12` [Compound I-64, 7-(cyclopropanecarboxamido)-2-(2-methoxy-4-(1-methyl-1H-1,2,3-triazol-4-yl)phenyl)-N-methyl-1H-pyrrolo[2,3-c]pyridine-4-carboxamide], the Kd is over 10000 pM.

As for `CNC(=O)c1cnc(NC(=O)C2CC2)c2[nH]c(-c3c(F)cc(-c4nccn4C)cc3F)cc12` [Compound I-77, 7-(cyclopropanecarboxamido)-2-(2,6-difluoro-4-(1-methyl-1H-imidazol-2-yl)phenyl)-N-methyl-1H-pyrrolo[2,3-c]pyridine-4-carboxamide], the Kd was under 200 pM.

In turn, `CNC(=O)c1cnc(Nc2ccn(C)n2)c2[nH]c(-c3cccc(-c4cnn(C)c4)c3F)cc12` [Compound I-97, 2-(2-fluoro-3-(1-methyl-1H-pyrazol-4-yl)phenyl)-N-methyl-7-((1-methyl-1H-pyrazol-3-yl)amino)-1H-pyrrolo[2,3-c]pyridine-4-carboxamide] came in with a Kd of under 200 pM.

On to `CNC(=O)c1cnc(NC(=O)C2CC2)c2[nH]c(-c3cccc([C@H]4C[C@H](OC)C4)c3F)cc12` [Compound I-94, 7-(cyclopropanecarboxamido)-2-(2-fluoro-3-((1r,3r)-3-methoxycyclobutyl)phenyl)-N-methyl-1H-pyrrolo[2,3-c]pyridine-4-carboxamide], for which the dissociation constant (Kd) is under 200 pM.

As for `CNC(=O)c1cnc(NC(=O)C2CC2)c2[nH]c(-c3cnccc3OC3CC3)cc12` [Compound I-44, 7-(cyclopropanecarboxamido)-2-(4-cyclopropoxypyridin-3-yl)-N-methyl-1H-pyrrolo[2,3-c]pyridine-4-carboxamide], the Kd is under 200 pM.

`CNC(=O)c1cnc(NC(=O)C2CC2)c2[nH]c(-c3ccc(C(=O)N4CC(F)(F)C4)cc3F)cc12` [Compound I-98, 7-(cyclopropanecarboxamido)-2-(4-(3,3-difluoroazetidine-1-carbonyl)-2-fluorophenyl)-N-methyl-1H-pyrrolo[2,3-c]pyridine-4-carboxamide]: the Kd was under 200 pM.

Consider `CNC(=O)c1cnc(NC(=O)C2CC2)c2[nH]c(-c3cccc(C4CCCO4)c3F)cc12` (stereo not shown) [Compound I-95, 7-(cyclopropanecarboxamido)-2-(2-fluoro-3-(tetrahydrofuran-2-yl)phenyl)-N-methyl-1H-pyrrolo[2,3-c]pyridine-4-carboxamide], for which the dissociation constant (Kd) was under 200 pM.

`CNC(=O)c1cnc(NC(=O)C2CC2)c2[nH]c(-c3cccc([C@H]4C[C@@H](OC)C4)c3F)cc12` [Compound I-91, 7-(cyclopropanecarboxamido)-2-(2-fluoro-3-((1s,3s)-3-methoxycyclobutyl)phenyl)-N-methyl-1H-pyrrolo[2,3-c]pyridine-4-carboxamide] came in with a dissociation constant (Kd) of under 200 pM.

Compound `CNC(=O)c1cnc(NC(=O)C2CC2)c2[nH]c(-c3ccc4nc(C)n(C)c4c3F)cc12` [Compound I-92, 7-(cyclopropanecarboxamido)-2-(7-fluoro-1,2-dimethyl-1H-benzo[d]imidazol-6-yl)-N-methyl-1H-pyrrolo[2,3-c]pyridine-4-carboxamide] came in with a Kd of under 200 pM.

As for `CNC(=O)c1cnc(NC(=O)C2CC2)c2[nH]c(N3CCCCC3)cc12` [Compound I-96, 7-(cyclopropanecarboxamido)-N-methyl-2-(piperidin-1-yl)-1H-pyrrolo[2,3-c]pyridine-4-carboxamide], the Kd was over 10000 pM.

In turn, `CNC(=O)c1cnc(NC(=O)C2CC2)c2[nH]c(-c3ccc(OC)cc3[C@H]3COCCO3)cc12` [Compound I-71] came in with a Kd of over 10000 pM.

In the case of `CNC(=O)c1cnc(NC(=O)C2CC2)c2[nH]c(-c3c(F)cc(-n4nccn4)cc3OC3CC3)cc12` [Compound I-82, 7-(cyclopropanecarboxamido)-2-(2-cyclopropoxy-6-fluoro-4-(2H-1,2,3-triazol-2-yl)phenyl)-N-methyl-1H-pyrrolo[2,3-c]pyridine-4-carboxamide], the Kd is over 10000 pM.

In turn, `CNC(=O)c1cnc(Nc2ccn(C)n2)c2[nH]c(-c3cccc(-c4cn5c(n4)COCC5)c3F)cc12` [Compound I-100, 2-(3-(5,6-dihydro-8H-imidazo[2,1-c][1,4]oxazin-2-yl)-2-fluorophenyl)-N-methyl-7-((1-methyl-1H-pyrazol-3-yl)amino)-1H-pyrrolo[2,3-c]pyridine-4-carboxamide] gave a Kd of under 200 pM.

`CNC(=O)c1cnc(NC(=O)C2CC2)c2[nH]c(-c3cccc(-c4cn5c(n4)C(C)(C)OCC5)c3F)cc12` [Compound I-84, 7-(cyclopropanecarboxamido)-2-(3-(8,8-dimethyl-5,6-dihydro-8H-imidazo[2,1-c][1,4]oxazin-2-yl)-2-fluorophenyl)-N-methyl-1H-pyrrolo[2,3-c]pyridine-4-carboxamide] had a Kd of under 200 pM.

As to `CNC(=O)c1cnc(NC(=O)C2CC2)c2[nH]c(-c3c(F)cc(-c4nccn4C)cc3N3CCC(F)(F)C3)cc12` [Compound I-83, 7-(cyclopropanecarboxamido)-2-(2-(3,3-difluoropyrrolidin-1-yl)-6-fluoro-4-(1-methyl-1H-imidazol-2-yl)phenyl)-N-methyl-1H-pyrrolo[2,3-c]pyridine-4-carboxamide], the Kd is under 200 pM.

The compound `CNC(=O)c1cnc(Nc2ccn(C)n2)c2[nH]c(-c3cccc(-c4cnc(C)o4)c3F)cc12` [Compound I-99, 2-(2-fluoro-3-(2-methyloxazol-5-yl)phenyl)-N-methyl-7-((1-methyl-1H-pyrazol-3-yl)amino)-1H-pyrrolo[2,3-c]pyridine-4-carboxamide] showed a dissociation constant (Kd) of under 200 pM.

For the compound `CNC(=O)c1cnc(NC(=O)C2CC2)c2[nH]c(-c3ccc(-c4nccn4C)cc3F)cc12` [Compound I-58, 7-(cyclopropanecarboxamido)-2-(2-fluoro-4-(1-methyl-1H-imidazol-2-yl)phenyl)-N-methyl-11H-pyrrolo[2,3-c]pyridine-4-carboxamide], the Kd is under 200 pM.

As for `CNC(=O)c1cnc(NC(=O)C2CC2)c2[nH]c(-c3c(F)cc(-c4nccn4C)cc3N3CCOCC3)cc12` [Compound I-86, 7-(cyclopropanecarboxamido)-2-(2-fluoro-4-(1-methyl-1H-imidazol-2-yl)-6-morpholinophenyl)-N-methyl-1H-pyrrolo[2,3-c]pyridine-4-carboxamide], the Kd is under 200 pM.

In general, Kd refers to the constant that tells how readily two partners part at equilibrium.
